Values of other authors as cited in patent US20120141398A1, “HAIR DYE CONTAINING ONE OR MORE EDIBLE OR COSMETIC COLORS” (priority 2010, published 2012).

Tests used:
large rat = settings: text b11, species not given

Structure (SMILES) | Ames Test (mutagenicity) (Salmonella typhimurium) | other results
Nc1ccccc1O [2-Aminophenol] | – | Median Lethal Dose/Kg (small rat; small rat): 800 g (small rat) g/Kg
Nc1cccc(N)c1 [m-phenylenediamine] | + | –
Oc1cccc(O)c1 [Resorcinol] | – | median lethal dose (small rat; rat, in vivo): 200 mg/kg
Nc1ccc(N)cc1 [p-phenylenediamine] | + | median lethal dose (large rat): 80 mg/kg
Nc1cc([N+](=O)[O-])ccc1O [2-amino-4-nitrophenolate] | + | –
Nc1ccc(OCCO)cc1[N+](=O)[O-] [4-amino-3-nitro-phenoxyethanol] | + | –
CCc1ccc(N)cc1N [2,4-diamino-ethylbenzene] | + | –
Nc1ccccc1N [o-phenylenediamine] | + | –
COc1ccc(N)cc1N [2,4 diaminoanisole] | + | –
